The source of these data is patent US20200190592A1, “PME-1 AS A BIOMARKER TO PREDICT AND DIAGNOSE AN INCREASED RISK OF ENDOMETRIAL CANCER AND GENE SILENCING OF PME-1 TO INHIBIT EPITHELIAL TO MESENCHYMAL TRANSITION” (Medical Diagnostic Laboratories, L.L.C., priority 2018, published 2020).

The target in series [1] is protein phosphatase 2A (PP2A), endogenous in RL95-2 cells. Put plainly: cell-based or functional assay.
For the next series, the system named is PME-1. Put plainly: Western blot of PME-1 protein in RL95-2 cells. Type of series: cell-based, human. Particulars: GAPDH loading control. An excerpt: We prepared RL95-2 cell lines expressing empty vector (control), over-expressing PME-1 (+PME-1), or expressing shRNA against PPME1, the gene that codes for PME-1 protein (−PME-1). Using these cells, we confirmed the appropriate level of PME-1 via real-time RT-PCR (data not shown) and Western blot analysis (FIG. 8). GAPDH was used as a loading control.
We also prepared two different shRNAs targeted against PME-1.
Lentivirus was produced in HEK293T cell lines with pLKO shRN vectors (Thermo Scientific, cat. no. RHS4533; Waltham, Mass.) and pCDH-CuO-GFP-Puro vectors (System Biosciences, Inc., cat. no. QM513B-1; Mountain View, Calif.) with pPACKH1 packaging plasmid (System Biosciences, Inc., cat, no. LV050A-1). shRNA sequences are in the Table 2. Lentivirus was collected and concentrated with Peg-IT concentrating solution (System Biosciences, Inc.). 5×10^6 ifu/ml lentivirus was added to cell cultures with growth media and 8 μg/ml PolyBrene (Sigma Aldrich). Media was changed to full growth media after 24 hrs and to selection media containing antibiotic after 48 hrs (5 μg/ml puromycin) (Invivogen) for 10 days.
15 μg of protein was used for western analysis. […]

Series [2] has as its system RL95-2 cells. Kind of series: Foci forming assay in RL95-2 cells. Type of series: cell-based, human. On the procedure:
A foci forming assay was used in this study to monitor cell growth. Equal amounts of cells were plated and they were allowed to grow for a determined period of time (see Materials and Methods section for details). The foci that were formed were then stained with the crystal violet dye. Cells were washed […] with PBS prior to visualization. Numbers of foci were counted and results were averaged among different experiments.
To determine if the loss of active PME-1 accounted for the observed decrease in foci formation, we first treated RL95-2 cells with siRNA against the 3′-UTR of PPME1 to decrease endogenous levels of PME-1. […] The S156A PME-1 mutant is not capable of demethylating its target, PP2A.
1,000 cells were plated in a six well tissue culture dish in selection media (to include 5 μg/ml puromycin) (InvivoGen). Cells were allowed to adhere and grow in a 5% CO2, 37° C. incubator for 10 to 14 days. Media was replaced every fourth day. Cells were stained with 1% crystal violet (Sigma Aldrich) for five minutes and rinsed with PBS. Colonies were counted and data is presented as the percentage of change compared to the control. All Experiments were repeated at least three times.

Series [3] has as its system Ishikawa endometrial cancer cells. Put plainly: Foci formation assay in Ishikawa cells. Type of series: cell-based, human. Particulars: DMSO set to 100%. On the procedure:
This study was completed in Ishikawa endometrial cancer cells.
1,000 cells were plated in a six well tissue culture dish in selection media (to include 5 μg/ml puromycin) (InvivoGen). Cells were allowed to adhere and grow in a 5% CO2, 37° C. incubator for 10 to 14 days. […] Cells were stained with 1% crystal violet (Sigma Aldrich) for five minutes and rinsed with PBS. Colonies were counted and data is presented as the percentage of change compared to the control. All Experiments were repeated at least three times.

The next series deals with Ishikawa cells. Put plainly: Trans-well migration assay. Type of series: cell-based, human. Particulars: 24 hr, through collagen towards 30% FBS, vs DMSO. How it is done: We next asked if PME-1 inhibition led to decreased cell migration by completing a trans-well migration assay. Cells were synchronized for 24 hours in media containing 0% FBS. For this experiment, DMSO was again used as the vehicle control and Ishikawa cells were treated with DMSO (control) or 50 nM ABL-127 or 20 μM AMZ-30 for 24 hr and were allowed to migrate through a collagen-coated well towards the bottom chamber, containing media with 30% FBS.
The assay was completed with ECC-1 endometrial carcinoma cell lines following kit instructions Cultrex 96 Well Collagen IV Cell Invasion Assay (cat #3458-096-K). Briefly, cells were serum starved for 24 hours prior to experimentation, then counted and put into the top chamber of a collagen type IV coated Transwell membrane at a concentration of 1×10^6 cells/well in 0% FBS. The bottom chamber contained 30% FBS. Cells were allowed to invade at 37° C. humid chamber incubator for 24 hours. Cells that invaded were analyzed using the kit provided Calcein-AM and fluorescence was read using FluoStar Galaxy.

Another series addresses T1, recombinant PME-1_des3 (Homo sapiens, UniProt Q9Y570).
T1 sequence (Q9Y570 1-383 limits assumed): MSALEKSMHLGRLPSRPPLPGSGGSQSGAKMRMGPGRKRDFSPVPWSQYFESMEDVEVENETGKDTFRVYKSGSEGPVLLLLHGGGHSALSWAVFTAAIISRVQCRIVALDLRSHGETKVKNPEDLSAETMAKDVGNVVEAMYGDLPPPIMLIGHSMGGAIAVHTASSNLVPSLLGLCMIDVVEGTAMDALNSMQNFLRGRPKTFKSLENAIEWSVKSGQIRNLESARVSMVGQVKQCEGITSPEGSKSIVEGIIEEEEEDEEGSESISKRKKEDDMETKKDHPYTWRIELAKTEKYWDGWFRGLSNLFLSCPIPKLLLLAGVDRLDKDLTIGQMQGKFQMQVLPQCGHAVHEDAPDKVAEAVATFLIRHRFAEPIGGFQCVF
Put plainly: Thermal melt (thermal shift) assay. Type of series: binding. How it is done:
There are several commercially available covalent PME-1 inhibitors that we have analyzed as potential endometrial cancer therapeutics. To confirm that the inhibitors directly bind PME-1, we completed a thermal melt assay. One micromole (1 μmole) of recombinant PME-1_des3, of which the last 3 amino acids are deleted, were pre-incubated with SYBR orange in the presence of 50 μM ABL-127 (a potent covalent PME-1 inhibitor, squares) or 0.05% DMSO (vehicle, circles) for 10 minutes (FIG. 25) at 37° C. We then performed a thermal gradient, increasing the temperature by 2° C. each minute from 37° C. to 95° C. and fluorescent signal was detected at 492-601 nm on a thermal cycler. The increase in Tm from ˜55° C. (PME-1+DMSO, circles) to ˜65° C. (PME-1+ABL-127, squares) indicated thermal stabilization of the PME-1 protein via direct binding of the ABL-127 inhibitor (FIG. 25).
The assay was completed by first conducting a 10 min pre-incubation of one μmole of recombinant PME-1des3 with 50 μM ABL127 (Sigma) or vehicle (0.05% DMSO) in the presence of SYBR Orange (1:1,000, v/v, Sigma) at 37° C. in 1×NEB buffer 2 (50 mM NaCl, 10 mM Tris-HCl, 10 mM MgCl2, 1 mM DTT, pH 7.9 at 25° C.), a thermal gradient was performed increasing temperature by 2° C. per minute increments from 37° to 95° C. and fluorescence (492 nm-610 nm) was acquired on a thermal cycler Mx3005P (Stratagene).

For series [4], the system named is RL95-2 cells. Put plainly: Colony forming / invasive growth assay in Matrigel. Type of series: cell-based, human. Particulars: RL95-2 in Matrigel, addition of TGF-β (10 ng/ml). How it is done:
To determine if PME-1 contributes to the more invasive and metastatic phenotypes, we performed a colony forming assay in matrigel.
The 3D On Top Matrigel Assay was completed in 24 well dishes as described previously {Lee, 2007 #1577}. Briefly, the bottoms of 24 well dishes were coated with 50 μl BD Matrigel Basement Matrix Phenol Red Free (BD Biosciences cat. #356237) and allowed to solidify at 37° C. 10^5 cells were suspended in 250 μl chilled medium containing either 10 ng/ml of TGF-b or vehicle and allowed to settle at 37° C. for 30 minutes. Chilled medium containing 10% of Matrigel was added by pipetting gently down the sidewall of the well and incubated at 37° C. for ten days changing top medium every second day. Colony counts were performed on the tenth day, averages were taken from three fields of view using a 10× objective. Experiment was repeated three times.

Another series has as its system PPME1. Put plainly: qRT-PCR of PPME1 (PME-1) expression in RL95-2 cells. Type of series: cell-based, human. Particulars: TGF-β 24 hours, control cells and +PME-1 cells, normalized to GAPDH. On the procedure:
In this study, we transfected RL95-2 cells to express empty vector (Control), over-expressing PME-1 (+PME-1) or expressing shRNA against PME-1 (−PME-1) followed by serum starvation for 24 hours. Afterwards, either vehicle or TGF-β treatment was performed at the end of the 24 hours. TGF-β was used to induce cells to initiate the EMT program. Gene expression analysis was conducted using quantitative real-time PCR.
Using RL95-2 endometrial cancer cells, we overexpressed PME-1 (FIG. 21A) or depleted PME-1 with shRNA (FIG. 21B) and confirmed that PME-1 was appropriately expressed.
Total RNA was extracted with Qiagen RNAEasy kit from RL95-2 cells. cDNA was synthesized using 500 ng-1 μg of RNA and SuperScript VILO c-DNA mix (Life Technologies). Taqman probes and PCR-mix were purchased from Life Technologies. All samples were run in triplicates. Results are representative of three independent experiments in which genes of interest were normalized to the house-keeping gene, 18S or GAPDH, where fold-change was calculated using the ddCt method.

“PME-1 (endogenous, RL95-2 cells) (from UniProt Q9Y570 2-386) (enzyme)” had a PP2A activity (phosphatase assay) after shRNA depletion of PME-1 in RL95-2 cells in series [1] of 30 fold. In the case of “PME-1 over-expressed in RL95-2 cells (+PME-1) (from UniProt Q9Y570 1-386) (enzyme)”, the PP2A activity (phosphatase assay) after over-expression of PME-1 in RL95-2 cells in series [1] is 90 % decrease. Consider “shPPME1 no. 1: shRNA targeting PPME1, SEQ ID NO: 1: GTACAGCTATGGATGCACTTA, bp 554-574 (guide GTACAGCTATGGATGCACTTA; listed as Homo sapiens)”, for which, in the series with PME-1, the “PME-1 levels via Western blot analysis” value is on record as “significantly decreased”. Turning to “PPME1 siRNA no. 2: siRNA, SEQ ID NO: 5: GTG GAT AGC ATC ACA AGA A, targets 3′-UTR (guide GTGGATAGCATCACAAGAA; listed as DNA, chemistry not given here; listed as Homo sapiens)”, the “decrease in foci formed” value in the series with RL95-2 cells [2] (RL95-2, siRNA followed by empty vector, vs control siRNA with empty vector) worked out at 40%. Moreover, in the series with RL95-2 cells [2] (RL95-2, siRNA plus over-expressed S156A mutant PME-1), the “reduction in foci formation” value is 40%. As to `N#C/C(=C\c1cccn1S(=O)(=O)c1cccc([N+](=O)[O-])c1)S(=O)(=O)c1ccc(F)cc1` [AMZ-30, (E)-2-(4-Fluorophenylsulfonyl)-3-(1-(3-nitrophenylsulfonyl)-1H-pyrrol-2-yl)-acrylonitrile], in series [3] (25 μM every 2-3 days for 10 days), the “decrease in the amount of foci formed” value is about 50%. For the same compound, the “percentage of cells capable of migrating” value in the series on Ishikawa cells (20 μM) is “dramatic decrease”. Regarding `COC(=O)N1C(=O)C(c2ccccc2)(C2CCCC2)N1C(=O)OC` (stereo in doubt) [ABL-127, (3R)-Dimethyl 3-cyclopentyl-4-oxo-3-phenyl-1,2-diazetidine-1,2,-dicarboxylate], the Tm at recombinant PME-1_des3 (50 μM ABL-127, 10 min pre-incubation at 37° C., PME-1+DMSO ˜55° C.) was about 65 °C. Further, the “melting temperature (Tm) and thermal stability of PME-1” value on recombinant PME-1_des3 (binding of ABL-127 vs vehicle) was “increases”. In addition, the “decrease in the amount of foci formed” value in series [3] (50 nM every 2-3 days for 10 days) is about 50%. Also, in the series with Ishikawa cells (50 nM), the “percentage of cells capable of migrating” value is “dramatic decrease”. On to TGF-β [reference compound], for which, in the series with RL95-2 cells [4], the colony number result is reported as “overall decrease”. Besides, in the series on PPME1, the “increase in PME-1 expression” value is given as about 2 fold.
